Experimental data reported in US4822791A, “Pharmaceutical compositions of-2,2-1,1-[bis-2,2'-(3,1-benzoxazin-4-one)9 ethylenes” (priority 1984, dated 1989).
Like-named read-outs stand apart in the source and are kept apart here.

Key:
hyaluronidase = target: T1, hyaluronidase (Bos taurus, UniProt Q2YDK3); assay: Anti-hyaluronidase activity (modified Morgan-Elson method); format: biochemical; details: hyaluronidase 340NF unit/ml, activating agent Compound 48/80 or CaCl2
T1 sequence (Q2YDK3 36-553): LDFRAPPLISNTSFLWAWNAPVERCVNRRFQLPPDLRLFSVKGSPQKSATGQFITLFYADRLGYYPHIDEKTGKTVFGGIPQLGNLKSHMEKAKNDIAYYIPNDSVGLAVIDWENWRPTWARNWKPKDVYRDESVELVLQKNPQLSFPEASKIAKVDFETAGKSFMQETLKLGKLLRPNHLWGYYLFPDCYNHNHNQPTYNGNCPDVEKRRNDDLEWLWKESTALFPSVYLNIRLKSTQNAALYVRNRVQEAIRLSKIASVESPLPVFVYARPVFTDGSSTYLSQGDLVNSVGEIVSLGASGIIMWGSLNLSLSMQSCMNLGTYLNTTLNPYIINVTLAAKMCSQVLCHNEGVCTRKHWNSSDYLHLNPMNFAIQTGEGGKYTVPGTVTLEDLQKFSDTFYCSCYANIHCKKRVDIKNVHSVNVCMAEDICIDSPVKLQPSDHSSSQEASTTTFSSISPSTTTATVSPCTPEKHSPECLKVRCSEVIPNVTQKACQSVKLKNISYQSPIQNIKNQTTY
Method: A buffer soluticn of hyaluronidase (0.1 ml) was taken in a test tube and 0.2 ml each of the buffer solution of various compounds in various concentrations was added, and the mixture was preincubated at 37° C. for 20 minutes. Then, an activating agent (Compound 48/80 or CaCl2) (0.2 ml) was added to make the total amount 0.5 ml, which was incubated at 37° C. for 20 minutes. Then, potassium hyaluronate buffer solution (0.5 ml) was added, and the mixture was incubated at 37° C. for 40 minutes. After cooling, the mixture was treated with aqueous solution of 0.4N NaOH (0.2 ml) and neutralized to stop the reaction. The resulting product was subjecred to measurement of OD585 by the modified Morgan-Elson Method. […] (The final ccncentration of hyaluronidase was 340NF unit/ml.) [formula]

[1] = tested on: passive cutaneous anaphylaxis (PCA); assay: Anti-passive cutaneous anaphylaxis (PCA) activity in rats (Test Example 2); format: in vivo, Wistar strain rats; details: Rattus norvegicus, N 10; for inhibition in vivo at 50 mg/kg: 50 mg/kg PO; for inhibition in vivo at 100 mg/kg: 100 mg/kg PO; for inhibition in vivo at 10 mg/kg: 10 mg/kg PO
Method: (§1) Wistar strain rats were sensitized with ovalbumin using aluminium hydroxide gel and Bordetella Pertussis vaccine as adjuvants. Dilutions of antiserum (16-fold and 32-fold) obtained by collecting blood samples 14 days later were administered subcutaneously in the dorsal skin of the rats of the same strain at the rate of 0.1 ml per spot, and the rats were grown for 48 hours. One hour after peroral administration of the sample solution, a mixture of antigen ovalbumin and Evans-blue dye was administered to the tail venous of the animal according to the ordinary procedure. Thirty minutes later, the animals were sacrificed by exsanguination, and the areas of blue spots (long diameter×short diameter) eliciting on the portion of the antiserum injection at the dorsal skin were measured to obtain the rate of inhibition based on the average value shown by the control animals.

[2] = tested on: experimental ulcer model (Shay); assay: Anti-ulcer activity in experimental ulcer model (Shay); format: in vivo, Wistar strain male rats
Method: Using 5 eight-week old Wistar strain male rats of 1 group, the rats were previously fasted for […]. The compound of an amount proportionate to the body weight based on the body weight after fasting was administered intraduodenally or intraperitoneally.
Each test compound was evenly suspended or dissolved in an aqueous solution of 0.5% CMC ccntaining 0.1% Tween 80, and administered at the rate of 0.5 ml per 100 g of body weight of the animal. To the controls, only the solvent was administered.
Test was carried out in accordance with Shay's method. After 48 hours' fasting, 5 animals per group were subjected to laparotomy under ether anesthesia, the tract between pylorus of stomach and duodenum was ligated, and the solution of the compound was administered intraduodenally (id) or intraperitoneally (ip), followed by suturing the laparotomy part. Eight hours after administration of the compound liquid, each animal was sacrificed by ether anesthesia and stomach was removed. Then, evaluation on the ulcer condition on the inner surface of stomach, and determination of the amount of gastric juice, of acidity by alkali titration, and of pepsin titer based on substrate of hemoglovin were made on the stored gastric juice. With regard to the acidity, gastric juice amount, and pepsin titer, the results were shown in inhibition rate (%) based on the average value of the control groups.

[3] = Acute toxicity LD50 in mice (Test Example 8); details: mouse, in vivo, one week, Probit method
Method: ddy-Strain mice (male) and Wistar strain rats were used to obtain LD50 values.
According to the ordinary procedure, suspension or solution of test sample was administered to the animals. From the number of the died animals until one week after the administration, LD50 values were obtained by Probit method.

[4] = tested on: passive cutaneous anaphylaxis (PCA); assay: Anti-passive cutaneous anaphylaxis activity (PCA) in rats (Test Example 9); format: in vivo; details: Rattus norvegicus, po, 10 animals
Method: as §1
This test was conducted in a manner similar to that in Test Example 2, except that the dilutions of antiserum were 12- and 24-folds.

[5] = Acute toxicity LD50 in ICR mice (Test Example 11); details: mouse, in vivo; intravenous; one week; Provit method; read-out: LD50 Value (mg/kg of body weight) Intravenous administration
Method: As test animals, ICR-strain mice (male) were used. According to the conventional procedure, suspension or solution of test sample was administered to the animals. From the number of the died animals until one week after the administration, LD50 values were obtained by Provit method.

[6] = read-out: Average Inhibition Rate (%) Antiserum Dilution: × 16
[7] = read-out: Average Inhibition Rate (%) Antiserum Dilution: × 32
[8] = iv, read-out: LD50 value (mg/kg body weight) Mouse i.v.
[9] = po, read-out: LD50 value (mg/kg body weight) Mouse p.o.
[10] = read-out: Inhibition, Anti-serum Dilution: × 12
[11] = read-out: Inhibition, Anti-serum Dilution: × 24

Structure (SMILES) | inhibition in vivo at 100 mg/kg [1, 6] [%] | inhibition in vivo at 100 mg/kg [1, 7] [%] | IC50 (hyaluronidase; read-out: IC50) [mM] | inhibition in vivo at 50 mg/kg [4, 10] [%] | inhibition in vivo at 50 mg/kg [4, 11] [%] | inhibition in vivo at 10 mg/kg [4, 10] [%] | inhibition in vivo at 10 mg/kg [4, 11] [%] | further results
COc1ccc(C=C(C(=O)Nc2cc([N+](=O)[O-])ccc2C(=O)O)C(=O)Nc2cc([N+](=O)[O-])ccc2C(=O)O)cc1OC [Compound 22] | 34.6 | 40 | – | – | – | – | – | IC50 (hyaluronidase; IC50 (mM)): 0.008 mM; inhibition in vivo at 50 mg/kg [1, 6]: 19.7%; inhibition in vivo at 50 mg/kg [1, 7]: 22.6%; Inhibition % Gastric Acidity ([2]; id 100 mg/kg): 9.1%; Inhibition % secretion amount of gastric juice ([2]; id 100 mg/kg): 11.1%; Inhibition % total pepsin titer ([2]; id 100 mg/kg): 7.2%; Inhibition % Gastric Acidity ([2]; id 200 mg/kg): 13.2%; Inhibition % secretion amount of gastric juice ([2]; id 200 mg/kg): 11.6%; Inhibition % total pepsin titer ([2]; id 200 mg/kg): 10.1%; Inhibition % Gastric Acidity ([2]; id 300 mg/kg): 15.7%; Inhibition % secretion amount of gastric juice ([2]; id 300 mg/kg): 24.9%; Inhibition % total pepsin titer ([2]; id 300 mg/kg): 8.3%; Inhibition % Gastric Acidity ([2]; ip 50 mg/kg): 38.2%; Inhibition % secretion amount of gastric juice ([2]; ip 50 mg/kg): 29.0%; Inhibition % total pepsin titer ([2]; ip 50 mg/kg): 37.2%
COc1cc(C=C(C(=O)Nc2ccccc2C(=O)O)C(=O)Nc2ccccc2C(=O)O)ccc1O [Compound 24] | – | – | 0.02 | – | – | – | – | LD50 at 168 h [3, 8]: 275 mg/kg; LD50 at 168 h [3, 9]: > 10000 mg/kg
Cc1ccc(C=C(C(=O)Nc2ccccc2C(=O)O)C(=O)Nc2ccccc2C(=O)O)cc1 [Compound 26, 2,2'-[[1,3-dioxo-2-(4-methyl)phenylmethylene-1,3-propanediyl]diimino]bisbenzoic acid] | 16.4 | 19.1 | 0.02 | – | – | – | – | inhibition in vivo at 50 mg/kg [1, 6]: 8.3%; inhibition in vivo at 50 mg/kg [1, 7]: 10%
CC(=O)Nc1ccc(C=C(C(=O)Nc2ccccc2C(=O)O)C(=O)Nc2ccccc2C(=O)O)cc1 [Compound 29] | 3.4 | 3.9 | 0.02 | – | – | – | – | Inhibition % Gastric Acidity ([2]; id 100 mg/kg): 0%; Inhibition % secretion amount of gastric juice ([2]; id 100 mg/kg): 0%; Inhibition % total pepsin titer ([2]; id 100 mg/kg): 0%; Inhibition % Gastric Acidity ([2]; id 200 mg/kg): 0.7%; Inhibition % secretion amount of gastric juice ([2]; id 200 mg/kg): 0.5%; Inhibition % total pepsin titer ([2]; id 200 mg/kg): 0%
O=C(Nc1ccccc1C(=O)O)C(=Cc1ccc(Cl)cc1)C(=O)Nc1ccccc1C(=O)O [Compound 30] | 36.5 | 42.5 | 0.01 | – | – | – | – | inhibition in vivo at 10 mg/kg [1, 6]: 18.8%; inhibition in vivo at 10 mg/kg [1, 7]: 23.2%; inhibition in vivo at 50 mg/kg [1, 6]: 23.4%; inhibition in vivo at 50 mg/kg [1, 7]: 33.3%; LD50 at 168 h [3, 8]: 258 mg/kg; LD50 at 168 h [3, 9]: 8380 mg/kg
CC(C)OC(=O)c1ccccc1NC(=O)C(=Cc1ccccc1)C(=O)Nc1ccccc1C(=O)OC(C)C [Compound 53, diisopropyl 2,2'-[(1,3-dioxo-2-phenylmethylene-1,3-propanediyl)diimino]bisbenzoate] | – | – | – | 26.1 | 23.9 | – | – | –
CC(C)(C)OC(=O)c1ccccc1NC(=O)C(=Cc1ccccc1)C(=O)Nc1ccccc1C(=O)OC(C)(C)C [Compound 54, di-tertiary butyl 2,2'-[(1,3-dioxo-2-phenylmethylene-1,3-propanediyl)diimino]bisbenzoate] | – | – | – | 38.8 | 42.6 | 33 | 34.3 | LD50 at 168 h [5]: 312 mg/kg
O=C(Nc1ccccc1C(=O)OC1OC(=O)c2ccccc21)C(=Cc1ccccc1)C(=O)Nc1ccccc1C(=O)OC1OC(=O)c2ccccc21 (stereo not drawn) [Compound 56] | – | – | – | 49.7 | 58.4 | 44.7 | 43.6 | –
CC(C)(C)C(=O)OCOC(=O)c1ccccc1NC(=O)C(=Cc1ccccc1)C(=O)Nc1ccccc1C(=O)OCOC(=O)C(C)(C)C [Compound 57, di(pivaloyloxymethyl)-2,2'-[(1,3-dioxo-2-phenylmethylene-1,3-propanediyl)diimino]bisbenzoate] | – | – | – | 45 | 50.1 | 37 | 30.9 | –
CCOC(=O)OC(C)OC(=O)c1ccccc1NC(=O)C(=Cc1ccccc1)C(=O)Nc1ccccc1C(=O)OC(C)OC(=O)OCC (stereo not drawn) [Compound 58, di[1-(ethoxycarbonyloxy)ethyl]-2,2'-[(1,3-dioxo-2-phenylmethylene-1,3-propanediyl)diimino]bisbenzoate] | – | – | – | 50.8 | 57.6 | 40.2 | 43.1 | –
Cc1oc(=O)oc1COC(=O)c1ccccc1NC(=O)C(=Cc1ccccc1)C(=O)Nc1ccccc1C(=O)OCc1oc(=O)oc1C [Compound 59, di[(5-methyl-2-oxo-1,3-dioxole-4-yl)methyl]-2,2'-[(1,3-dioxo-2-phenylmethylene-1,3-propanediyl)diimino]bisbenzoate] | – | – | – | 65.7 | 62 | 22 | 25.1 | –
